Results reported in patent US5141957A, “1,4-bis-(amino-hydroxyalkylamino)-anthraquinones for inhibiting protein kinase C” (Sphinx Pharmaceuticals Corporation, priority 1990, dated 1992).
Structures can show the parent of a compound that is named as a salt.

Columns and labels:
Protein kinase C (PKC) = experiment: Protein kinase C inhibition (histone H1 phosphorylation, 32P-ATP); assay type: biochemical; conditions: histone H1 substrate; enzyme from rat brain; 20 μM ATP; pH 7.5; 10 min
Protocol: The protein kinase C (PKC) assay is designed to duplicated the in vivo conditions required for protein kinase C function. Therefore, pH, salt and cofactor concentrations are similar to physiologic levels. Histone Hl (lysine rich) is used in the assay as the phosphorylation acceptor protein because it is readily available and serves as a good substrate for protein kinase C. The enzyme is prepared from rat brain and is purified to apparent homogeneity as determined by a single band on silver stained SDS-polyacrylamide. Studies on the mechanism of regulation of protein kinase C by phospholipids, DAG and Ca^+2 have been hampered by the physical properties of the lipid cofactors. In the screening assay, phosphatidylserine (PS) and DAG are co-sonicated to form unilamellar and multilamellar vesicles. The concentration of lipids in the assay are suboptimal to maximize the detection potential of the assay for inhibitors. Potential inhibitor compounds are added to the assay in dimethylsulfoxide at three concentrations to give final inhibitor concentrations of 4.3, 43 and 218 μM, respectively. The assay is started with the addition of enzyme and stopped after 10 min by the addition of 25 % trichloroacetic acid (TCA) and 1.0 mg/ml bovine serum albumin (BSA). […] The amount of phosphorylation is determined by the radioactivity measured in a scintillation counter. […]

CEM cells = experiment: Human tumor cell growth inhibition (3H-thymidine incorporation), CEM; assay type: cell-based; conditions: CCRF-CEM, inhibition of 3H-thymidine incorporation, 18-24 hrs + 4 hrs
Source text: (§1) MCF-7 a human breast tumor cell line and MCF-7/ADR an adriamycin resistant line of MCF-7 cells were obtained from the National Cancer Institute, Frederick, Md. CEM cells (ATCC accession number CCL 119) were obtained from the American Type Culture Collection, Rockville, Md. Human tumor cells are trypsinized (0.05% trypsin, GIBCO), counted with a hemacytometer and seeded at a concentration of 10,000 cells/well in a 96 well microtiter plate. After allowing cells to attach to the surface overnight, the culture medium is aspirated and replaced with 100 μl of fresh medium. Test agents are diluted to determine dose response at 2× final concentration and added in quadruplicate at 100 μl/well to bring the total volume of each well to 200 μl . The microtiter plate is then incubated at 37° C. 5% CO2 overnight (18-24 hrs) before ^3 H-thymidine is added at a concentration of 0.5 μCi/well in 50 μl culture medium. The plate is incubated again for 4 hrs under the same conditions as above. Supernatant is then aspirated and 50μl trypsin (0.05%, GIBCO) is added to each well. Cells are checked microscopically to determine detachment from surfaces, and plates are then harvested with a cell harvester (PHD, Cambridge Technology, Inc.) Filter papers corresponding to wells are placed in scintillation vials and counted to determine the amount of ^3 H-thymidine incorporated by the cells. […]

[1] = test system: MCF-7 human breast tumor cell line; experiment: Human tumor cell growth inhibition (3H-thymidine incorporation), MCF-7; assay type: cell-based; conditions: MCF7, inhibition of 3H-thymidine incorporation, 18-24 hrs + 4 hrs
Source text: as §1

[2] = test system: MCF-7/ADR adriamycin resistant line of MCF-7 cells; experiment: Human tumor cell growth inhibition (3H-thymidine incorporation), MCF-7/ADR; assay type: cell-based; conditions: NCI/ADR-RES, inhibition of 3H-thymidine incorporation, 18-24 hrs + 4 hrs
Source text: as §1

[3] = test system: Proliferating keratinocytes (NHEK cells); experiment: Human keratinocyte inhibition (3H-thymidine incorporation); assay type: cell-based; conditions: second passage, inhibition of 3H-thymidine incorporation
Protocol: as §1, with “Human” for “MCF-7 a human breast tumor cell line and MCF-7/ADR an adriamycin resistant line of MCF-7 cells were obtained from the National Cancer Institute, Frederick, Md. CEM cells (ATCC accession number CCL 119) were obtained from the American Type Culture Collection, Rockville, Md. Human”, “Supernatant is then aspirated and 50μl trypsin (0.05%, GIBCO) is added to each well.” left out
Proliferating keratinocytes (NHEK cells purchased from Clonetics, Inc., San Diego, Calif.) in second passage were grown in Keratinocyte Growth Medium (KGM) (Clonetics, Inc.) Cells are trypsinized (0.025% trypsin, Clonetics), counted with a hemacytometer (Scientific Products), and seeded at a concentration of 2,500 cells/well in a 96 well microtiter plate. […]

[4] = test system: PMA-stimulated neutrophils; experiment: Neutrophil superoxide anion (O2-) release assay; assay type: cell-based; conditions: Homo sapiens, 0.5 h, 37° C., 30 min, cytochrome c reduction at 550 nm, read-out: IC50, PMA-stimulated O2- production (respiratory burst)
Protocol: Neutrophils are isolated form whole blood collected from human volunteers. All reagent materials are obtained from Sigma Chemical Company with the exception of isotonic saline (Travenol Laboratories, Inc., Deerfield, Ill.) and lymphocyte separation medium (Organon Teknika, Durham, N.C.).
Whole blood is drawn and mixed with sodium heparin (final conc. 10 units/ml) to prevent clotting. An equal volume of dextran (3.0%) in isotonic saline is added, mixed, and allowed to settle for 30 min to bind red blood cells (RBC). Supernatant is removed, underlayered with lymphocyte separation medium and centrifuged for 40 min at 400 ×g in a centrifuge (Beckman GPR, Norcross, Ga.). The pellet is alternately resuspended in 0.2% and 1.6% NaCl to lyse RBCs before washing with Hank's Balanced Salt Solution (HBSS). […]
The neutrophil cell concentration is adjusted to 2×10^6 cells/ml with HBSS before adding 0.8 ml cells to 12×75 mm polypropylene test tubes (Fisher Scientific). […] Optical density (OD) of cytochrome c is read in a spectrophotometer (Shimadzu) at 550 nm. […] Reducing cytochrome c increases its absorbance, and the change in OD of cytochrome c is proportional to the amount of O2^- produced by PMA stimulation. […] Inhibition is expressed as IC50 μM and is the amount of test compound that will inhibit fifty per cent of the PMA-stimulated respiratory outburst, i.e. O2^- production.

| IC50 (Protein kinase C (PKC)) | IC50 (CEM cells) | IC50 [1] | IC50 [2] | IC50 [4] | SMILES | IC50 [3] |
| --- | --- | --- | --- | --- | --- | --- |
| 199 µM | 5.6 µM | 2400 nM | > 25 µM |  | CCCNCC(O)CNc1ccc(NCC(O)CNCCC)c2c1C(=O)c1ccccc1C2=O (stereo not shown) [Compound 1a, 1,4-Bis-(3-Propylamino-2-Hydroxypropylamino)-9, 10 anthracenedione hydrochloride] |  |
| 43 µM | 2.7 µM | 2700 nM | 17 µM | 3.9 µM | O=C1c2ccccc2C(=O)c2c(NCC(O)CNCc3ccccc3)ccc(NCC(O)CNCc3ccccc3)c21 (stereo not shown) [Compound 1b, 1,4-Bis-(3-Benzylamino-2-Hydroxypropylamino)-9, 10 anthracenedione. Hydrochloride salt] | 4 µM |
